Experimental data: patent US20080194585A1, “Fungicidal Pyrazine Derivatives” (priority 2005, published 2008)
Marks after values point to notes of the source that are not given here.

Experiments:
Plasmopara viticola = test: Test D: grape downy mildew, spray after inoculation of grape seedlings; assay type: in vivo
Source text: Upon removal, disease ratings were made. […] A dash (-) indicates no test results.

Phytophthora infestans = test: whole plant or invertebrate; assay type: in vivo
fusarium graminearium = test: Test I: wheat head scab, preventive spray on wheat seedlings; details: 200 ppm
Procedure: (the causal agent of wheat head scab) and incubated in a saturated atmosphere at 20° C. for 72 h, and then moved to a growth chamber at 22° C. for 5 days, after which disease ratings were made.

[1] = tested on: Puccinia recondita f. sp. tritici; test: Test K: wheat leaf rust, preventive spray on wheat seedlings
Botrytis cinerea = test: Test E: tomato botrytis, preventive spray on tomato seedlings
Septoria nodorum = test: Test H: wheat glum blotch, preventive spray on wheat seedlings
Procedure: (the causal agent of wheat glum blotch) and incubated in a saturated atmosphere at 20° C. for 48 h, and then moved to a growth chamber at 22° C. for 5 days, after which disease ratings were made.

[2] = tested on: Erysiphe graminis f. sp. tritici; test: Test L: wheat powdery mildew, preventive spray on wheat seedlings
Sclerotinia sclerotiorum = test: Test C: cucumber white mold, preventive spray on cucumber seedlings
Pythium aphanidermatum = test: Test A: bluegrass pythium blight, preventive spray on bluegrass seedlings
Rhizoctonia oryzae = test: Test G: turf brown patch, preventive spray on creeping bent grass seedlings
Procedure: (the causal agent of turf brown patch) and incubated in a saturated atmosphere at 27° C. for 24 h, and then moved to a growth chamber at 27° C. for 5 days, after which disease ratings were made.

[3] = tested on: Colletotrichum orbiculare; test: Test B: cucumber Colletotrichum anthracnose, preventive spray on cucumber seedlings
Septoria tritici = test: Test J: wheat leaf blotch, preventive spray on wheat seedlings; assay type: in vivo
Source text: A dash (-) indicates no test results.

[4] = 40 ppm (marked *), 100 = 100% disease control, 0 = no control
[5] = 200 ppm, 100 = 100% disease control, 0 = no control

Structure (SMILES) | Test D disease control rating (Plasmopara viticola; [4]) | Test F disease control rating (Phytophthora infestans; [4]) | Test J disease control rating (Septoria tritici; [4]) | Test K disease control rating [1, 4] | Test E disease control rating (Botrytis cinerea; [4]) | Test H disease control rating (Septoria nodorum; [4]) | Test L disease control rating [2, 4] | Test C disease control rating (Sclerotinia sclerotiorum; [4]) | Test A disease control rating (Pythium aphanidermatum; [4]) | Test G disease control rating (Rhizoctonia oryzae; [4]) | Test B disease control rating [3, 4] | Test D disease control rating (Plasmopara viticola; [5]) | Test F disease control rating (Phytophthora infestans; [5]) | Test J disease control rating (Septoria tritici; [5]) | Test K disease control rating [1, 5] | Test E disease control rating (Botrytis cinerea; [5]) | Test H disease control rating (Septoria nodorum; [5]) | Test L disease control rating [2, 5] | Test C disease control rating (Sclerotinia sclerotiorum; [5]) | Test A disease control rating (Pythium aphanidermatum; [5]) | other results
CC(C)Cn1c(-c2cccc(Cl)c2Cl)c(Cl)nc(-n2cncn2)c1=O [compound 39] |  |  |  |  |  |  |  |  |  |  |  |  |  |  |  |  |  |  |  |  | Test D disease control rating (Plasmopara viticola; 200 ppm): 0%; Test F disease control rating (Phytophthora infestans; 200 ppm): 0%; Test I disease control rating (fusarium graminearium): 0%; Test K disease control rating ([1]; 200 ppm): 67%; Test E disease control rating (Botrytis cinerea; 200 ppm): 99%; Test H disease control rating (Septoria nodorum; 200 ppm): 89%; Test L disease control rating ([2]; 200 ppm): 0%; Test C disease control rating (Sclerotinia sclerotiorum; 200 ppm): 0%; Test A disease control rating (Pythium aphanidermatum; 200 ppm): 0%; Test G disease control rating (Rhizoctonia oryzae; 200 ppm): 0%; Test B disease control rating ([3]; 200 ppm): 0%
Cc1cccc(-c2c(Cl)nc(-n3cccn3)c(=O)n2CC(C)C)c1 [compound 248] |  |  |  |  |  |  |  |  |  |  |  |  |  |  |  |  |  |  |  |  | Test D disease control rating (Plasmopara viticola; 40 ppm (*)): 0* %; Test F disease control rating (Phytophthora infestans; 40 ppm (*)): 0* %; Test J disease control rating (Septoria tritici; 40 ppm (*)): 44* %; Test K disease control rating ([1]; 40 ppm (*)): 0* %; Test E disease control rating (Botrytis cinerea; 40 ppm (*)): 66* %; Test H disease control rating (Septoria nodorum; 40 ppm (*)): 0* %; Test L disease control rating ([2]; 40 ppm (*)): 0* %; Test C disease control rating (Sclerotinia sclerotiorum; 40 ppm (*)): 0* %; Test A disease control rating (Pythium aphanidermatum; 40 ppm (*)): 0* %; Test G disease control rating (Rhizoctonia oryzae; 40 ppm (*)): 0* %; Test B disease control rating ([3]; 40 ppm (*)): 0* %
CC(C)Cn1c(-c2cccc(C#N)c2)c(Cl)nc(-n2cncn2)c1=O [compound 249] | 0* % | 0* % | 26* % | 0* % | 0* % | 0* % | 0* % | 0* % | 0* % | 0* % | 0* % |  |  |  |  |  |  |  |  |  | 
CC(C)Cn1c(-c2cccc(C#N)c2)c(Cl)nc(-n2cccn2)c1=O [compound 250] | 0* % | 0* % | 30* % | 0* % | 0* % | 0* % | 0* % | 0* % | 0* % | 0* % | 0* % |  |  |  |  |  |  |  |  |  | 
CC(C)Cn1c(-c2cccc3c2OCO3)c(Cl)nc(-n2cccn2)c1=O [compound 251] |  |  |  |  |  |  |  |  |  |  |  | 0% | 0% | 97% | 17% | 99% | 82% | 0% | 0% | 0% | Test G disease control rating (Rhizoctonia oryzae; [5]): 21%; Test B disease control rating [3, 5]: 0%
CC(C)Cn1c(-c2ccc3c(c2)OC(F)(F)O3)c(Cl)nc(-n2cccn2)c1=O [compound 252] |  |  |  |  |  |  |  |  |  |  |  | 0% | 0% | 53% | 0% | 0% | 0% | 0% | 0% | 0% | Test G disease control rating (Rhizoctonia oryzae; [5]): 0%; Test B disease control rating [3, 5]: 0%
CC(C)Cn1c(-c2cc3c(cc2Cl)OCO3)c(Cl)nc(-n2cccn2)c1=O [compound 253] |  |  |  |  |  |  |  |  |  |  |  | 0% | 0% | 66% | 0% | 0% | 0% | 0% | 0% | 0% | Test G disease control rating (Rhizoctonia oryzae; [5]): 0%; Test B disease control rating [3, 5]: 0%
Cc1cc(C)c(-c2c(Cl)nc(-n3cccn3)c(=O)n2CC(C)C)c(C)c1 [compound 254] | 0* % | 0* % | 99* % | 59* % | 94* % | 0* % | 54* % | 0* % | 0* % | 41* % | 0* % |  |  |  |  |  |  |  |  |  | 
